In US20230038188A1 (priority 2021, published 2023):
Where “and” joins values, the source holds several entries; their conditions need not be identical. Identical values can stand only once.

What was measured:
Assay type in all cases: biochemical
Settings in all cases: 1.5 mg/ml
blood clotting factors = experiment: Activated partial thromboplastin time (aPTT)
Description: (§1) The blood clotting inhibitory activity (thrombus formation inhibitory activity) of each of the wasp extracts prepared in Example 1 was evaluated by measuring the thrombin time, the prothrombin time and the aPTT time in the same manner as a previously reported method (Sohn et al., 2004. Kor. J. Pharmacogn 35. 52-61; Kwon et al., 2004. J. Life Science, 14. 509-513; Ryu et al., 2010. J. Life Science, 20. 922-928). As plasma, control plasma (MD Pacific Technology Co., Ltd., Huayuan Industrial Area, China) was used. The thrombin time, the prothrombin time and the aPTT time were measured by the following methods.
Activated Partial Thromboplastin Time (aPTT)
100 μl of plasma and 10 μl of each sample extract at various concentrations were added to a tube of Amelung coagulometer KC-1A (Japan) and warmed at 37° C. for 3 minutes, and then 50 μl of aPTT reagent (Sigma, ALEXIN™) was added thereto, followed by incubation at 37° C. for 3 minutes. Thereafter, 50 μl of CaCl2) (35 mM) was added thereto, and then the time taken for the plasma to clot was measured. […] The aPTT was expressed as the average of three repeated experiments, and the blood clotting inhibitory activity was expressed as the value obtained by dividing the aPTT after sample addition by the aPTT of the solvent control.

prothrombin = experiment: Prothrombin time (plasma clotting time with PT reagent)
Description: as §1
70 μl of standard plasma (MD Pacific Co., China) and 10 μl of each sample extract at various concentrations were added to a tube of Amelung coagulometer KC-1A (Japan) and warmed at 37° C. for 3 minutes, and then 130 μl of PT reagent was added thereto. The time taken for the plasma to clot was expressed as the average of three repeated experiments. […] The prothrombin inhibitory activity was expressed as the value obtained by dividing the clotting time after sample addition by the clotting time of the solvent control.

human thrombin = target: T1, human thrombin (Homo sapiens, UniProt P00734); experiment: Thrombin time (plasma clotting time with added thrombin)
T1 construct: 50 μl of 0.5 U thrombin (Sigma Co., USA); purchased Sigma Co., USA
Description: as §1
50 μl of 0.5 U thrombin (Sigma Co., USA), 50 μl of 20 mM CaCl2) and 10 μl of each sample extract at various concentrations were mixed in a tube of Amelung coagulometer KC-1A (Japan) at 37° C. and allowed to react for 2 minutes, and then 100 μl of plasma was added thereto and the time taken for the plasma to clot was measured. As a control, aspirin (Sigma Co., USA) was used, and a solvent control, DMSO was used instead of the sample. […] The thrombin inhibitory effect was expressed as the average of three or more repeated experiments, and the thrombin inhibitory activity was expressed as the value obtained by dividing the clotting time after sample addition by the clotting time of the solvent control.

Thrombin time (blood clotting time after sample addition/blood clotting time after solvent addition) (human thrombin; Table 2): 1.54 and 1.54 ± 0.11
Thrombin time (blood clotting time after sample addition/blood clotting time after solvent addition) (human thrombin; Table 4): 1.43 ± 0.04
SMILES: CC(=O)Oc1ccccc1C(=O)O [Aspirin]
Blood clotting factor inhibition time (aPTT time) (sample/solvent) (blood clotting factors; Table 2): 1.55 and 1.55 ± 0.07
Blood clotting factor inhibition time (aPT time) (sample/solvent) (blood clotting factors; Table 4): 1.42 ± 0.03
Prothrombin time (blood clotting time after sample addition/blood clotting time after solvent addition) (prothrombin; Table 2): 1.44 and 1.44 ± 0.04
Prothrombin time (blood clotting time after sample addition/blood clotting time after solvent addition) (prothrombin; Table 4): 1.73 ± 0.01
